In brackets after ≈: the same amount, converted by molar mass.
Columns and labels:
[1] = tested on: P. falciparum NF54 strain (sensitive to standard antimalarials); test: semiautomated microdilution assay, [3H]-hypoxanthine incorporation, NF54 strain; assay type: cell-based, Plasmodium falciparum; settings: NF54 strain, 72 h incubation
Summary of the method: (§1)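 Intraerythrocytic stages from unsynchronised stock cultures are exposed to test compounds in a semiautomated microdilution format, and fifty percent inhibitory concentrations are then fitted by logit regression.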

[2] = tested on: Schistosoma mansoni adult schistosomes (49-day-old); test: effect on adult schistosomes (49-day-old) in mice; assay type: in vivo; settings: single 400 mg/kg per os
Procedure: Mice were infected with 100 Schistosoma mansoni cercariae […]. Each group was treated per os with OZ compounds at single doses of 200, 400, and 600 mg/kg. […] All groups were killed 4 weeks after treatment and the liver and intestine were removed and separated. The liver and intestine were compressed and alive male and female worms could be seen and counted.

[3] = tested on: P. falciparum K1 strain (Thailand resistant to chloroquine); test: semiautomated microdilution assay, [3H]-hypoxanthine incorporation, K1 strain; assay type: cell-based, Plasmodium falciparum; settings: K1 strain, 72 h incubation
Summary of the method: as §1

[4] = tested on: ANKA strain of P. berghei; test: single dose STI in vivo screen in infected mice; parameters: species or system Plasmodium berghei; settings: for Activity (%) 3 mg/kg SSV po / Activity (%) 10 mg/kg SSV po: percent reduction in parasitemia day 3 post-infection; for Activity (%) 3 mg/kg SSV po / Survival (days) 3 mg/kg SSV po: single 3 mg/kg po in SSV; for Survival (days) 10 mg/kg SSV po / Activity (%) 10 mg/kg SSV po: single 10 mg/kg po in SSV
Summary of the method: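 Groups of 3-5 Moro SPF or NMRI mice infected with the ANKA strain of P. berghei received a single dose of trioxolane on day one post-infection. The compound was given in 3% ethanol and 7% Tween 80 or in SSV (0.5% w/v CMC, 0.5% v/v benzyl alcohol, 0.4% v/v Tween 80, 0.9% w/v sodium chloride in water). Antimalarial activity was scored as percent reduction in parasitemia on day three and as survival time versus untreated controls. Survival to day 30 counted as cure.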

[5] = tested on: Schistosoma mansoni 21-day-old schistosomules; test: effect on 21-day-old schistosomules in mice; assay type: in vivo; settings: single 200 mg/kg per os, female mice
Procedure: All groups were killed 4 weeks after treatment and the liver and intestine were removed and separated. The liver and intestine were compressed and alive male and female worms could be seen and counted. The effect of the compounds was evaluated by mean total and female worm burden.

P. berghei ANKA strain = test: treatment: 3x3 mg/kg and 3x1 mg/kg po divided doses in infected mice; assay type: in vivo, Plasmodium berghei; settings: for Activity (%) p.o. SSV: percent reduction of parasitemia day 4
Procedure: Moro NMRI male mice (Fü Albino specific pathogen free) weighing 18±2 g were infected intravenously (i.v.) with 2×10^7 P. berghei ANKA strain-infected erythrocytes from donor mice on day 0 of the experiment. From donor mice with circa 30% parasitemia, heparinized blood was taken and diluted in physiological saline to 10^8 parasitized erythrocytes per ml. An aliquot (0.2 ml) of this suspension was injected i.v. into experimental and control groups of mice. In untreated control mice, parasitemia rose regularly to 40 to 50% by day 3 post-infection and 70 to 80% by day 4 post-infection. The mice died between days 5 and 7 post-infection. Throughout the experiments, mice were kept in groups of three or five animals in Makrolon type II cages in an air-conditioned animal room at 22 to 23° C. A diet with p-aminobenzoic acid (PABA) of 45 mg (NAFAG FUTTER© food N^o 9009 PAB-45) per kg of body weight, and tap water is available ad libitum.
OZ compounds were prepared at an appropriate concentration, either as a solution or a suspension containing SSV (0.5% w/v CMC, 0.5% v/v benzyl alcohol, 0.4% v/v Tween 80, and 0.9% w/v sodium chloride in water). They were administered per os (p.o.) in a total volume of 0.01 ml per gram of mouse. The activity of the compound was determined by a variety of methods outlined in subsequent sections. Survival time was also recorded, and survival to day 30 post-infection was considered to be a cure.
The second experiment consists of administration of divided 3×3 mg/kg and 3×1 mg/kg po doses administered on days 1, 2, and 3 post-infection. On day 4 post-infection, blood smears of all animals were prepared and stained with Giemsa. Parasitemia was determined microscopically, and the difference between the mean value of the control group (taken as 100%) and those of the experimental groups was calculated and expressed as percent reduction. Compounds were administered orally in the SSV vehicle.

[6] = 3 × 1 mg/kg days 1, 2, 3 post-infection
[7] = 3 × 3 mg/kg days 1, 2, 3 post-infection

Structure (SMILES) | IC50 (ng/ml) NF54 [1] [ng/mL] | % reduction of adult worms growth at day 49 after per os application of 400 mg/kg, TWR (%) [2] | adult worms at day 49, per os 400 mg/kg, DEAD WORM (%) [2] | IC50 (ng/ml) K1 [3] [ng/mL] | Activity (%) 3 mg/kg SSV po [4] [%] | Survival (days) 10 mg/kg SSV po [4] [days] | % reduction of schistosomule growth at day 21 after per os application of 200 mg/kg, FWR (%) [5] [%] | % reduction of schistosomule growth at day 21 after per os application of 200 mg/kg, TWR (%) [5] [%] | Activity (%) 10 mg/kg SSV po [4] [%] | Survival (days) 3 mg/kg SSV po [4] [days] | Survival (days) p.o. SSV (P. berghei ANKA strain; [6]) [days] | Activity (%) p.o. SSV (P. berghei ANKA strain; [6]) [%] | Survival (days) p.o. SSV (P. berghei ANKA strain; [7]) [days] | Activity (%) p.o. SSV (P. berghei ANKA strain; [7]) [%]
O=C(O)CNC[C@H]1CC[C@]2(CC1)OO[C@]1(O2)C2CC3CC(C2)CC1C3 [OZ309] | 17 (≈ 0.0484 µM) | 19% | 17% | 11 (≈ 0.0313 µM) | 86 | 8.8 | 100 | 97 | – | – | – | – | – | –
O=C(O)C1CCN(C(=O)C[C@H]2CC[C@]3(CC2)OO[C@]2(O3)C3CC4CC(C3)CC2C4)CC1 [OZ312] | 27 (≈ 0.0623 µM) | 16% | 9% | 19 (≈ 0.0438 µM) | 13 | 7.2 | 93 | 94 | 43 | – | – | – | – | –
O=C(O)CC[C@H]1CC[C@]2(CC1)OO[C@]1(O2)C2CC3CC(C2)CC1C3 [OZ352] | 20 (≈ 0.0594 µM) | 16% | 26% | 19 (≈ 0.0565 µM) | 77 | 8.2 | 91 | 89 | 99.66 | 7.2 | – | – | – | –
O=C(O)C(=O)NC[C@H]1CC[C@]2(CC1)OO[C@]1(O2)C2CC3CC(C2)CC1C3 [OZ360] | 59 (≈ 0.161 µM) | 0/0% | 0/0% | 58 (≈ 0.159 µM) | 0 | 6.8 | 13 | 17 | 38 | 6.2 | – | – | – | –
Oc1ccc(C2CCC3(CC2)OOC2(O3)C3CC4CC(C3)CC2C4)cc1 (stereo not shown) [compound 288] | – | – | – | – | – | – | – | – | – | – | 8.4 | 49 | 10.2 | 99
CCOC(=O)CNCC1CCC2(CC1)OOC1(O2)C2CC3CC(C2)CC1C3.CS(=O)(=O)O (stereo not shown) [compound 290] | – | – | – | – | – | – | – | – | – | – | 6.8 | 14 | 10.6 | 93
O=C1CN(C(=O)CC2CCC3(CC2)OOC2(O3)C3CC4CC(C3)CC2C4)CCN1 (stereo not shown) [compound 296] | – | – | – | – | – | – | – | – | – | – | 7.8 | 49 | 9.4 | 94

From patent US6906205B2, “Spiro and dispiro 1,2,4-trioxolane antimalarials” (Medicines for Malaria Venture MMV, priority 2002, dated 2005)
